Experimental findings from patent publication US11090304B2 (Amgen Inc., priority 2018, dated 2021) are described below.

In assay [1] the target is GDP-bound KRAS protein (aa 1-169), containing both G12C and C118A amino acid substitutions (Homo sapiens, UniProt P01116, C118A/G12C). Description: Coupled nucleotide exchange assay (SOS-mediated, AlphaScreen). The class given is biochemical. Conditions: 5 min compound pre-incubation.
Assay [2] deals with Phosphorylation of ERK1/2 in MIA PaCa-2 cells. Description: Phospho-ERK1/2 MSD assay in MIA PaCa-2 cells. Conditions: read-out: p-ERK IC50 (2 h; MIA PaCa-2), 2 h compound treatment. The class given is cell-based. The protocol:
For compounds in Table 89, the following assay conditions were employed:
Phospho-ERK1/2 MSD Assay:
Sixteen hours prior to compound treatment, MIA PaCa-2 or A549 cells were seeded in 96-well cell culture plates at a density of 25,000 cells/well and incubated at 37° C., 5% CO2. A compound dose-response titration was diluted in growth media, added to appropriate wells of a cell culture plate, and then incubated at 37° C., 5% CO2 for 2 or 4 hours (see Table 15). Following compound treatment, cells were stimulated with 10 ng/mL EGF (Roche 11376454001) for 10 min, washed with ice-cold Dulbecco's phosphate-buffered saline, no Ca^2+ or Mg^2+ (ThermoFisher Scientific 14190144), and then lysed in RIPA buffer (50 mM Tris-HCl pH 7.5, 1% Igepal, 0.5% sodium deoxycholate, 150 mM NaCl, and 0.5% sodium dodecyl sulfate) containing protease inhibitors (Roche 4693132001) and phosphatase inhibitors (Roche 4906837001). Phosphorylation of ERK1/2 in compound-treated lysates was assayed using Phospho-ERK1/2 Whole Cell Lysate kits (Meso Scale Discovery K151DWD) according to the manufacturer's protocol. Assay plates were read on a Meso Scale Discovery Sector Imager 6000, and data were analyzed using a 4-parameter logistic model to calculate IC50 values.

Each structure is given as a SMILES string. Read-outs that look alike come from different tables or passages of the source.

Chain of GDP-bound KRAS protein (aa 1-169), containing both G12C and C118A amino acid substitutions (P01116 1-169 isoform P01116-2 G12C/C118A): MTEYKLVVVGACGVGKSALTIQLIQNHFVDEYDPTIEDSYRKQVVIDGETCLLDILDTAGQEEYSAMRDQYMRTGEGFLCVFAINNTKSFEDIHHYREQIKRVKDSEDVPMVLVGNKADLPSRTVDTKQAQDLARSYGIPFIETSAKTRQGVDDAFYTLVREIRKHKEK

Regarding `C=CC(=O)N1CCN(c2nc(=O)n(-c3c(N)cccc3C(C)C)c3nc(-c4ccccc4F)c(Cl)cc23)[C@@H](C)C1` (single isomer, unassigned) [Example 155-1], the “Coupled exchange IC50 (5 min)” value in assay [1] is on record as 0.038 | nda μM. The IC50 in assay [2] (Homo sapiens, MIA PaCa-2, 2 h) amounted to 0.043 µM.
In the same order, the values of `C=CC(=O)N1CCN(c2nc(=O)n(-c3c(OC)ncnc3C(C)C)c3nc(-c4ccccc4F)c(Cl)cc23)[C@@H](C)C1` (single isomer, unassigned) [Example 54-107-2] are 0.067 | nda μM and 0.048 µM.
Taken in the same sequence, the figures for `C=CC(=O)N1CCN(c2nc(=O)n(-c3c(OC)ncnc3C(C)C)c3nc(-c4ccccc4F)c(Cl)cc23)[C@@H](C)C1` [Example 54-107, 6-chloro-7-(2-fluorophenyl)-1-(4-methoxy-6-(2-propanyl)-5-pyrimidinyl)-4-((2S)-2-methyl-4-(2-propenoyl)-1-piperazinyl) pyrido[2,3-d]pyrimidin-2(1H)-one] were 0.159 | nda μM and 0.099 µM.
As to `C=CC(=O)N1CCN(c2nnc(-c3c(C(C)C)cccc3C(C)C)c3nc(-c4ccccc4F)c(Cl)cc23)[C@@H](C)C1` [Example 138, 1-((3S)-4-(3-Chloro-8-(2,6-di(2-propanyl)phenyl)-2-(2-fluorophenyl)pyrido[2,3-d]pyridazin-5-yl)-3-methyl-1-piperazinyl)-2-propen-1-one], in assay [1], the “Coupled exchange IC50 (5 min)” value is 1.75 | nda μM. Also, the IC50 in assay [2] (Homo sapiens, MIA PaCa-2, 2 h) stood at 1.59 µM.
`C=CC(=O)N1CCN(c2nc(=O)n(-c3c(C(C)C)ccnc3C)c3nc(-c4ccccc4F)c(Cl)cc23)[C@@H](C)C1` (single isomer, unassigned) [Example 54-18-1]: the “Coupled exchange IC50 (5 min)” value in assay [1] is 0.044 | nda μM. For the same compound, the IC50 in assay [2] is 0.036 µM.
On to `C=CC(=O)N1CCN(c2nc(=O)n(-c3c(C)ccnc3C(C)C)c3nc(-c4c(O)cccc4F)c(C)cc23)[C@@H](C)C1` (single isomer, unassigned) [Example 74-3-1], for which the “Coupled exchange IC50 (5 min)” value in assay [1] is 0.05 | nda μM. For the same compound, the 50% inhibitory concentration (IC50) in assay [2] (Homo sapiens, MIA PaCa-2, 2 h) stood at 0.103 µM.
With `C=CC(=O)N1CCN(c2nc(=O)n(-c3c(C)ccnc3C(C)C)c3nc(-c4cc(OC)c(F)cc4F)c(F)cc23)[C@@H](C)C1` (atropisomer, axis not shown; (M)) [Example 72-6, (M)-7-(2,4-difluoro-5-methoxyphenyl)-6-fluoro-1-(4-methyl)-2-(2-propanyl)-3-pyridinyl)-4-((2S)-(2-methyl-4-(2-propenoyl)-1-piperazinyl)pyrido[2,3-d]pyrimidin-2(1H)-one], in assay [1], the “Coupled exchange IC50 (5 min)” value is 0.315 | nda μM. The IC50 in assay [2] (Homo sapiens, MIA PaCa-2, 2 h) came out at 0.564 µM.
Taken in the same sequence, the figures for `C=CC(=O)N1CCN(c2nc(=O)n(-c3ccccc3C(C)C)c3nc(-c4cc(O)cc(Cl)c4Cl)c(Cl)cc23)[C@@H](C)C1` [Example 54-91, 6-chloro-7-(2,3-dichloro-5-hydroxy-phenyl)-4-((2S)-2-methyl-4-(2-propenoyl)-1-piperazinyl)-1-(2-(2-propanyl)phenyl)pyrido [2,3-d]pyrimidin-2(1H)-one] were 0.033 | nda μM and 0.039 µM.
As for `C=CC(=O)N1CCN(c2nc(=O)n(-c3nccnc3C3CC3)c3nc(-c4ccccc4F)c(Cl)cc23)[C@@H](C)C1` [Example 60-10, 6-chloro-1-(3-cyclopropyl-2-pyrazinyl)-7-(2-fluorophenyl)-4-((2S)-2-methyl-4-(2-propenoyl)-1-piperazinyl)pyrido[2,3-d]pyrimidin-2(1H)-one], the “Coupled exchange IC50 (5 min)” value in assay [1] is given as 0.328 | nda μM. Further, the IC50 in assay [2] (Homo sapiens, MIA PaCa-2, 2 h) stood at 0.156 µM.
Taken in the same sequence, the figures for `C=CC(=O)N1CCN(c2nc(=O)n(-c3ncnn3C(C)C)c3nc(-c4ccccc4F)c(Cl)cc23)[C@@H](C)C1` [Example 55-41, 6-chloro-7-(2-fluorophenyl)-4-((2S)-2-methyl-4-(2-propenoyl)-1-piperazinyl)-1-(1-(2-propanyl)-1H-1,2,4-triazol-5-yl)pyrido[2,3-d]pyrimidin-2(1H)-one] were 0.292 | nda μM and 0.908 µM.
Regarding `C=CC(=O)N1CCN(c2nc(=O)n(-c3c(C4CC4)ncnc3C3CC3)c3nc(-c4c(O)cccc4F)c(Cl)cc23)[C@@H](C)C1` [Example 60-29, 6-chloro-1-(4,6-dicyclopropyl-5-pyrimidinyl)-7-(2-fluoro-6-hydroxyphenyl)-4-((2S)-2-methyl-4-(2-propenoyl)-1-piperazinyl)pyrido[2,3-d]pyrimidin-2(1H)-one], the IC50 in assay [1] (read-out: Coupled exchange IC50 (5 min)) was determined as 0.034 µM; in assay [2] (Homo sapiens), 0.036 µM.
On to `C=CC(=O)N1CCN(c2nc(=O)n(-c3scnc3C(C)C)c3nc(-c4c(O)cccc4F)c(F)cc23)[C@@H](C)C1` [Example 57-11, 6-fluoro-7-(2-fluoro-6-hydroxyphenyl)-4-((2S)-2-methyl-4-(2-propenoyl)-1-piperazinyl)-1-(4-(2-propanyl)-1,3-thiazol-5-yl)pyrido[2,3-d]pyrimidin-2(1H)-one], for which the “Coupled exchange IC50 (5 min)” value in assay [1] is recorded as 0.24 | nda μM. The IC50 in assay [2] (Homo sapiens, MIA PaCa-2, 2 h) amounted to 0.265 µM.
In the case of `C=CC(=O)N1CCN(c2nc(=O)n(-c3c(C)ccnc3N(C)C)c3nc(-c4ccccc4F)c(Cl)cc23)[C@@H](C)C1` (single isomer, unassigned) [Example 55-7-2], the “Coupled exchange IC50 (5 min)” value in assay [1] is recorded as 0.325 | nda μM. For the same compound, in assay [2] (Homo sapiens, MIA PaCa-2, 2 h), the IC50 is 0.587 µM.
Turning to `C=CC(=O)N1CCN(c2nc(=O)n(-c3ccccc3C(C)C)c3nc(-c4nc(N)cc5ccccc45)c(Cl)cc23)[C@@H](C)C1` [Example 70-2, 7-(3-amino-1-isoquinolinyl)-6-chloro-4-((2S)-2-methyl-4-(2-propenoyl)-1-piperazinyl)-1-(2-(2-propanyl)phenyl)pyrido[2,3-d]pyrimidin-2(1H)-one], the “Coupled exchange IC50 (5 min)” value in assay [1] is given as 0.184 | nda μM. For the same compound, the 50% inhibitory concentration (IC50) in assay [2] (Homo sapiens, MIA PaCa-2, 2 h) came to 0.213 µM.
`C=CC(=O)N1CCN(c2nc(=O)n(-c3c(C)cccc3C3CC3)c3nc(-c4c(O)cccc4F)c(Cl)cc23)[C@@H](C)C1` (single isomer, unassigned) [Example 55-15-1]: the “Coupled exchange IC50 (5 min)” value in assay [1] was 0.169 | nda μM. Besides, the IC50 in assay [2] worked out at 0.206 µM.
For `C=CC(=O)N1CCN(c2nc(=O)n(-c3c(Cl)cccc3C(C)C)c3nc(-c4c(O)cccc4F)c(F)cc23)[C@@H](C)C1` (single isomer, unassigned) [Example 57-15-1], the “Coupled exchange IC50 (5 min)” value in assay [1] is listed as 0.089 | nda μM. The half-inhibitory concentration (IC50) in assay [2] came out at 0.104 µM.
With `C=CC(=O)N1CCN(c2nc(=O)n(-c3c(C)ccnc3C(C)C)c3nc(-c4cc(N)ccc4Cl)c(F)cc23)[C@@H](C)C1` [Example 58-8, 7-(5-amino-2-chlorophenyl)-6-fluoro-1-(4-methyl-2-(2-propanyl)-3-pyridinyl)-4-((2S)-2-methyl-4-(2-propenoyl)-1-piperazinyl)pyrido[2,3-d]pyrimidin-2(1H)-one], in assay [1], the “Coupled exchange IC50 (5 min)” value is on record as 0.393 | nda μM. The IC50 in assay [2] (Homo sapiens, MIA PaCa-2, 2 h) stood at 0.437 µM.
For `C=CC(=O)N1CCN(c2nc(=O)n(-c3cccnc3C(C)C)c3nc(-c4c(O)cccc4F)c(Cl)cc23)[C@@H](C)C1` (single isomer, unassigned) [Example 54-11-1], the “Coupled exchange IC50 (5 min)” value in assay [1] is 0.049 | nda μM. Also, in assay [2], the IC50 was determined as 0.054 µM.
For `C=CC(=O)N1CCN(c2nc(=O)n(-c3c(C)cccc3C(C)C)c3nc(-c4ccccc4F)c(C)cc23)[C@@H](C)C1` [Example 102, 7-(2-Fluorophenyl)-6-methyl-1-(2-methyl-6-(2-propanyl)phenyl)-4-((2S)-2-methyl-4-(2-propenoyl)-1-piperazinyl)pyrido[2,3-d]pyrimidin-2(1H)-one], in assay [1], the “Coupled exchange IC50 (5 min)” value is 0.421 | nda μM. In addition, the IC50 in assay [2] (Homo sapiens, MIA PaCa-2, 2 h) amounted to 0.667 µM.
Regarding `C=CC(=O)N1CCN(c2nc(=O)n(-c3c(CC)ncnc3CC)c3nc(-c4c(O)cccc4F)c(Cl)cc23)[C@@H](C)C1` [Example 55-31, 6-chloro-1-(4,6-diethyl-5-pyrimidinyl)-7-(2-fluoro-6-hydroxyphenyl)-4-((2S)-2-methyl-4-(2-propenoyl)-1-piperazinyl)pyrido[2,3-d]pyrimidin-2(1H)-one], the “Coupled exchange IC50 (5 min)” value in assay [1] was 0.098 | nda μM. Further, the IC50 in assay [2] (Homo sapiens, MIA PaCa-2, 2 h) was found to be 0.079 µM.
Taken in the same sequence, the figures for `C=CC(=O)N1CCN(c2nc(=O)n(-c3c(C)ccnc3C(C)C)c3nc(-c4cc(C(F)(F)F)ccc4F)c(Cl)cc23)[C@@H](C)C1` (atropisomer, axis not shown; (M)) [Example 73-8, (M)-6-chloro-7-(2-fluoro-5-(trifluoromethyl)phenyl)-1-(4-methyl-2-(2-propanyl)-3-pyridinyl)-4-((2S)-2-methyl-4-(2-propenoyl)-1-piperazinyl)pyrido[2,3-d]pyrimidin-2(1H)-one] were 0.236 | nda μM and 0.653 µM.
